Target: T1, HCV NS3 protease (Hepatitis C virus genotype 1b, UniProt P26663)
T1 construct: an NS3/4A complex comprising the NS3 protease domain
Assay: Inhibition of NS3 protease (HPLC cleavage assay, NS3/4A complex with Pep4AK, substrate peptide 4AB)
Format: biochemical
Settings: Table 2 tetrapeptides and tripeptides; read-out: IC50

T1 sequence (P26663 1027-1208, other chains not shown): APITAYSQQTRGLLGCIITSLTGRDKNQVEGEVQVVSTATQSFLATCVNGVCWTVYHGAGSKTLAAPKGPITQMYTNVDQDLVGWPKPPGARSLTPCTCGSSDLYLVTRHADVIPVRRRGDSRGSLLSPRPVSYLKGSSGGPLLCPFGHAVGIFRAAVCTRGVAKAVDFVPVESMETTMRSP

Compound | IC50 [nM]
CC(C)C[C@H](NC(=O)[C@H](CCC(N)=O)NC(=O)OC(C)(C)C)C(=O)NC(CC(F)F)C(=O)C(=O)O (stereo partly shown) [Compound 5k] | 2100
CC(C)C[C@H](NC(=O)[C@H](CC(=O)OCc1ccccc1)NC(=O)OC(C)(C)C)C(=O)NC(CC(F)F)C(=O)C(=O)O (stereo partly shown) [Compound 5l] | 3500
CC(C)C[C@H](NC(=O)[C@H](CC(=O)O)NC(=O)OC(C)(C)C)C(=O)NC(CC(F)F)C(=O)C(=O)O (stereo partly shown) [Compound 5m] | 1600
CC(C)C[C@H](NC(=O)[C@@H](NC(=O)OC(C)(C)C)C(C)(C)C)C(=O)NC(CC(F)F)C(=O)C(=O)O (stereo partly shown) [Compound 5n] | 720
CC(C)(C)OC(=O)N[C@@H](CCC(=O)O)C(=O)N[C@@H](CC(F)F)C(=O)NC(CC(F)F)C(=O)C(=O)O (stereo partly shown) [Compound 5o] | 300
CC(C)C[C@H](NC(=O)[C@H](C/C=C/c1ccccc1)NC(=O)OC(C)(C)C)C(=O)NC(CC(F)F)C(=O)C(=O)O (stereo partly shown) [Compound 5p] | 2400
CC(C)CC[C@H](NC(=O)OC(C)(C)C)C(=O)N[C@@H](CC(C)C)C(=O)NC(CC(F)F)C(=O)C(=O)O (stereo partly shown) [Compound 5q] | 1600
CC(C)C[C@H](NC(=O)[C@H](Cc1ccc(Cl)c(Cl)c1)NC(=O)OC(C)(C)C)C(=O)NC(CC(F)F)C(=O)C(=O)O (stereo partly shown) [Compound 5r] | 5800
CC(C)C[C@H](NC(=O)[C@H](Cc1cccs1)NC(=O)OC(C)(C)C)C(=O)NC(CC(F)F)C(=O)C(=O)O (stereo partly shown) [Compound 5s] | 3800
CC(C)C[C@H](NC(=O)[C@H](Cc1cccc(Br)c1)NC(=O)OC(C)(C)C)C(=O)NC(CC(F)F)C(=O)C(=O)O (stereo partly shown) [Compound 5t] | 2500
CC(C)C[C@H](NC(=O)[C@@H](NC(=O)OC(C)(C)C)C1CCCC1)C(=O)NC(CC(F)F)C(=O)C(=O)O (stereo partly shown) [Compound 5u] | 400
CC(C)COC(=O)N[C@@H](CCC(=O)O)C(=O)N[C@@H](CC(C)C)C(=O)NC(C=O)CC(F)F (stereo partly shown) [Compound 6a] | 26000
CC(C)C[C@H](NC(=O)[C@@H](NC(=O)OCc1ccccc1)C(C)C)C(=O)NC(C=O)CC(F)F (stereo partly shown) [Compound 6b] | 50000

— patent US6867284B1, “Peptide inhibitors of hepatitis C virus NS3 protease” (Istituto di Ricerche di Biologia Molecolare P. Angeletti …, priority 1998, dated 2005)
